In US9725449B2, “Tricyclic compounds as anticancer agents” (BRISTOL-MYERS SQUIBB COMPANY, priority 2015, dated 2017):

Biological target: BRD4 (Homo sapiens, UniProt O60885)
Test: Time resolved fluorescence resonance energy transfer (TR-FRET) binding assay, bromodomain BRD4
Conditions: one of the FRET assays described; read-out: FRET BRD4 IC50

Row | Compound | IC50 [nM]
1 | [2H]C([2H])([2H])c1nnn(C)c1-c1cnc2c3c(OCC4CC4)ncc(S(C)(=O)=O)c3n([C@H](c3ccccc3F)C3CCOCC3)c2c1 [Example 76, 13-(Cyclopropylmethoxy)-8-[(S)-(2-fluorophenyl)(oxan-4-yl)methyl]-10-methanesulfonyl-5-[4-(^2H3)methyl-1-methyl-1H-1,2,3-triazol-5-yl]-3,8,12-triazatricyclo[7.4.0.0^2,^7]trideca-1(13),2(7),3,5,9,11-hexaene] | < 1
2 | [2H]C([2H])([2H])c1nnn(C)c1-c1cnc2c3c(OCC)ncc(S(C)(=O)=O)c3n([C@H](c3ccc(F)cc3)C3CCOCC3)c2c1 [Example 77, 13-Ethoxy-8-[(S)-(4-fluorophenyl)(oxan-4-yl)methyl]-10-methanesulfonyl-5-[4-(^2H3)methyl-1-methyl-1H-1,2,3-triazol-5-yl]-3,8,12-triazatricyclo[7.4.0.0^2,^7]trideca-1(13),2(7),3,5,9,11-hexaene] | < 1
3 | [2H]C([2H])([2H])c1nnn(C)c1-c1cnc2c3c(OCC4CC4)ncc(S(C)(=O)=O)c3n([C@H](c3ccc(F)cc3)C3CCOCC3)c2c1 [Example 78, 13-(Cyclopropylmethoxy)-8-[(S)-(4-fluorophenyl)(oxan-4-yl)methyl]-10-methanesulfonyl-5-[4-(^2H3)methyl-1-methyl-1H-1,2,3-triazol-5-yl]-3,8,12-triazatricyclo[7.4.0.0^2,^7]trideca-1(13),2(7),3,5,9,11-hexaene] | < 1
4 | [2H]C([2H])([2H])c1nnn(C)c1-c1cnc2c3c(OC(C)C)ncc(S(C)(=O)=O)c3n([C@H](c3ccc(F)cc3)C3CCOCC3)c2c1 [Example 79, 8-[(S)-(4-Fluorophenyl)(oxan-4-yl)methyl]-10-methanesulfonyl-5-[4-(^2H3)methyl-1-methyl-1H-1,2,3-triazol-5-yl]-13-(propan-2-yloxy)-3,8,12-triazatricyclo[7.4.0.0^2,^7]trideca-1(13),2(7),3,5,9,11-hexaene] | < 1
5 | [2H]C([2H])([2H])c1nnn(C)c1-c1cnc2c3c(OC(C)C)ncc(S(C)(=O)=O)c3n([C@H](c3ccccc3F)C3CCOCC3)c2c1 [Example 80, 8-[(S)-(2-Fluorophenyl)(oxan-4-yl)methyl]-10-methanesulfonyl-5-[4-(^2H3)methyl-1-methyl-1H-1,2,3-triazol-5-yl]-13-(propan-2-yloxy)-3,8,12-triazatricyclo[7.4.0.0^2,^7]trideca-1(13),2(7),3,5,9,11-hexaene] | < 1
6 | [2H]C([2H])([2H])c1nnn(C)c1-c1cnc2c3c(OC)ncc(S(C)(=O)=O)c3n([C@H](c3ccccc3)C3CCC(F)(F)CC3)c2c1 [Example 81, 8-[(S)-(4,4-Difluorocyclohexyl)(phenyl)methyl]-10-methanesulfonyl-13-methoxy-5-[4-(^2H3)methyl-1-methyl-1H-1,2,3-triazol-5-yl]-3,8,12-triazatricyclo[7.4.0.0^2,^7]trideca-1(13),2(7),3,5,9,11-hexaene] | < 1
7 | [2H]C([2H])([2H])c1nnn(C)c1-c1cnc2c3c(OC)ncc(S(C)(=O)=O)c3n([C@@H](c3ccccc3)C3CCC(F)(F)CC3)c2c1 [Example 82, 8-[(R)-(4,4-Difluorocyclohexyl)(phenyl)methyl]-10-methanesulfonyl-13-methoxy-5-[4-(^2H3)methyl-1-methyl-1H-1,2,3-triazol-5-yl]-3,8,12-triazatricyclo[7.4.0.0^2,^7]trideca-1(13),2(7),3,5,9,11-hexaene] | < 1500
8 | [2H]C([2H])([2H])c1nnn(C)c1-c1cnc2c3c(OCCCF)ncc(S(C)(=O)=O)c3n([C@H](c3ccccc3F)C3CCOCC3)c2c1 [Example 85, 8-[(S)-(2-Fluorophenyl)(oxan-4-yl)methyl]-13-(3-fluoropropoxy)-10-methanesulfonyl-5-[4-(^2H3)methyl-1-methyl-1H-1,2,3-triazol-5-yl]-3,8,12-triazatricyclo[7.4.0.0^2,^7]trideca-1(13),2(7),3,5,9,11-hexaene] | < 1
9 | [2H]C([2H])([2H])c1nnn(C)c1-c1cnc2c3c(O)ncc(S(C)(=O)=O)c3n([C@H](c3ccccc3)C3CCC(F)(F)CC3)c2c1 [Example 92, 8-[(S)-(4,4-Difluorocyclohexyl)(phenyl)methyl]-10-methanesulfonyl-5-[4-(^2H3)methyl-1-methyl-1H-1,2,3-triazol-5-yl]-3,8,12-triazatricyclo[7.4.0.0^2,^7]trideca-1(13),2(7),3,5,9,11-hexaen-13-ol] | < 10
10 | Cc1nnn(C)c1-c1cnc2c3c(O)ncc(S(C)(=O)=O)c3n([C@H](c3ccccc3)C3CCOCC3)c2c1 [Example 93, 5-(Dimethyl-1H-1,2,3-triazol-5-yl)-10-methanesulfonyl-8-[(S)-oxan-4-yl(phenyl)methyl]-3,8,12-triazatricyclo[7.4.0.0^2,^7]trideca-1(13),2(7),3,5,9,11-hexaen-13-ol] | < 10
11 | [2H]C([2H])([2H])c1nnn(C)c1-c1cnc2c3c(OCC4CC4)ncc(S(C)(=O)=O)c3n([C@H](c3ccccc3)C3CCC(F)(F)CC3)c2c1 [Example 94, 13-(Cyclopropylmethoxy)-8-[(S)-(4,4-difluorocyclohexyl)(phenyl)methyl]-10-methanesulfonyl-5-[4-(^2H3)methyl-1-methyl-1H-1,2,3-triazol-5-yl]-3,8,12-triazatricyclo[7.4.0.0^2,^7]trideca-1(13),2(7),3,5,9,11-hexaene] | < 10
12 | [2H]C([2H])([2H])c1nnn(C)c1-c1cnc2c3c(OC)ncc(S(C)(=O)=O)c3n([C@H](c3ccc(F)cc3)C3CCC(F)(F)CC3)c2c1 [Example 95, 8-[(S)-(4,4-Difluorocyclohexyl)(4-fluorophenyl)methyl]-10-methanesulfonyl-13-methoxy-5-[4-(^2H3)methyl-1-methyl-1H-1,2,3-triazol-5-yl]-3,8,12-triazatricyclo[7.4.0.0^2,^7]trideca-1(13),2(7),3,5,9,11-hexaene] | < 10
13 | Cc1nnn(C)c1-c1cnc2c3c(NS(=O)(=O)C4CC4)ncc(S(C)(=O)=O)c3n([C@H](c3ccccc3)C3CCOCC3)c2c1 [Example 97, N-[5-(Dimethyl-1H-1,2,3-triazol-5-yl)-10-methanesulfonyl-8-[(S)-oxan-4-yl(phenyl)methyl]-3,8,12-triazatricyclo[7.4.0.0^2,^7]trideca-1(13),2(7),3,5,9,11-hexaen-13-yl]cyclopropanesulfonamide] | < 1
14 | Cc1noc(C)c1-c1cnc2c3c(NS(=O)(=O)C4CC4)ncc(S(C)(=O)=O)c3n([C@H](c3ccccc3)C3CCOCC3)c2c1 [Example 98, N-[5-(Dimethyl-1,2-oxazol-4-yl)-10-methanesulfonyl-8-[(S)-oxan-4-yl(phenyl)methyl]-3,8,12-triazatricyclo[7.4.0.0^2,^7]trideca-1(13),2(7),3,5,9,11-hexaen-13-yl]cyclopropanesulfonamide] | < 10
15 | CCS(=O)(=O)Nc1ncc(S(C)(=O)=O)c2c1c1ncc(-c3c(C)noc3C)cc1n2[C@H](c1ccccc1)C1CCOCC1 [Example 99, N-[5-(Dimethyl-1,2-oxazol-4-yl)-10-methanesulfonyl-8-[(S)-oxan-4-yl(phenyl)methyl]-3,8,12-triazatricyclo[7.4.0.0^2,^7]trideca-1(13),2(7),3,5,9,11-hexaen-13-yl]ethane-1-sulfonamide] | < 1
16 | Cc1noc(C)c1-c1cnc2c3c(NS(=O)(=O)C(C)C)ncc(S(C)(=O)=O)c3n([C@H](c3ccccc3)C3CCOCC3)c2c1 [Example 100, N-[5-(Dimethyl-1,2-oxazol-4-yl)-10-methanesulfonyl-8-[(S)-oxan-4-yl(phenyl)methyl]-3,8,12-triazatricyclo[7.4.0.0^2,^7]trideca-1(13),2(7),3,5,9,11-hexaen-13-yl]propane-2-sulfonamide] | < 10
17 | Cc1nnn(C)c1-c1cnc2c3c(OCC4CC4)ncc(S(C)(=O)=O)c3n([C@H](c3ccccc3)C3CCOCC3)c2c1 [Example 101, 13-(Cyclopropylmethoxy)-5-(dimethyl-1H-1,2,3-triazol-5-yl)-10-methanesulfonyl-8-[(S)-oxan-4-yl(phenyl)methyl]-3,8,12-triazatricyclo[7.4.0.0^2,^7]trideca-1(13),2(7),3,5,9,11-hexaene] | < 10
18 | Cc1noc(C)c1-c1cnc2c3c(NS(C)(=O)=O)ncc(S(C)(=O)=O)c3n([C@H](c3ccccc3)C3CCOCC3)c2c1 [Example 102, N-[5-(Dimethyl-1,2-oxazol-4-yl)-10-methanesulfonyl-8-[(S)-oxan-4-yl(phenyl)methyl]-3,8,12-triazatricyclo[7.4.0.0^2,^7]trideca-1(13),2(7),3,5,9,11-hexaen-13-yl]methanesulfonamide] | < 10
19 | Cc1noc(C)c1-c1cnc2c3c(OCC4CC4)ncc(S(C)(=O)=O)c3n([C@H](c3ccccc3)C3CCOCC3)c2c1 [Example 103, 13-(Cyclopropylmethoxy)-5-(dimethyl-1,2-oxazol-4-yl)-10-methanesulfonyl-8-[(S)-oxan-4-yl(phenyl)methyl]-3,8,12-triazatricyclo[7.4.0.0^2,^7]trideca-1(13),2(7),3,5,9,11-hexaene] | < 10
20 | Cc1nnn(C)c1-c1cnc2c3c(NS(=O)(=O)CC4CC4)ncc(S(C)(=O)=O)c3n([C@H](c3ccccc3)C3CCOCC3)c2c1 [Example 104, 1-Cyclopropyl-N-[5-(dimethyl-1H-1,2,3-triazol-5-yl)-10-methanesulfonyl-8-[(S)-oxan-4-yl(phenyl)methyl]-3,8,12-triazatricyclo[7.4.0.0^2,^7]trideca-1(13),2(7),3,5,9,11-hexaen-13-yl]methanesulfonamide] | < 10
21 | Cc1nnn(C)c1-c1cnc2c3c(NS(C)(=O)=O)ncc(S(C)(=O)=O)c3n([C@H](c3ccccc3)C3CCOCC3)c2c1 [Example 105, N-[5-(Dimethyl-1H-1,2,3-triazol-5-yl)-10-methanesulfonyl-8-[(S)-oxan-4-yl(phenyl)methyl]-3,8,12-triazatricyclo[7.4.0.0^2,^7]trideca-1(13),2(7),3,5,9,11-hexaen-13-yl]methanesulfonamide] | < 10
22 | COc1ncc(S(=O)(=O)CC2(O)COC2)c2c1c1ncc(-c3c(C)nnn3C)cc1n2[C@H](c1ccccc1)C1CCOCC1 [Example 106, 3-({[5-(Dimethyl-1H-1,2,3-triazol-5-yl)-13-methoxy-8-[(S)-oxan-4-yl(phenyl)methyl]-3,8,12-triazatricyclo[7.4.0.0^2,^7]trideca-1(13),2(7),3,5,9,11-hexaen-10-yl]sulfonyl}methyl)oxetan-3-ol] | < 10
